Structures can show the parent of a compound that is named as a salt.
Legend:
human recombinant GPBP-1 = target: T1, human recombinant GPBP-1 (Homo sapiens, UniProt Q9Y5P4); experiment: GPBP-1 in vitro autophosphorylation (kinase) assay with [γ-32P]ATP; type: biochemical
T1 construct: made in house; host or cells: Pichia pastoris
T1 sequence (Q9Y5P4 1-624): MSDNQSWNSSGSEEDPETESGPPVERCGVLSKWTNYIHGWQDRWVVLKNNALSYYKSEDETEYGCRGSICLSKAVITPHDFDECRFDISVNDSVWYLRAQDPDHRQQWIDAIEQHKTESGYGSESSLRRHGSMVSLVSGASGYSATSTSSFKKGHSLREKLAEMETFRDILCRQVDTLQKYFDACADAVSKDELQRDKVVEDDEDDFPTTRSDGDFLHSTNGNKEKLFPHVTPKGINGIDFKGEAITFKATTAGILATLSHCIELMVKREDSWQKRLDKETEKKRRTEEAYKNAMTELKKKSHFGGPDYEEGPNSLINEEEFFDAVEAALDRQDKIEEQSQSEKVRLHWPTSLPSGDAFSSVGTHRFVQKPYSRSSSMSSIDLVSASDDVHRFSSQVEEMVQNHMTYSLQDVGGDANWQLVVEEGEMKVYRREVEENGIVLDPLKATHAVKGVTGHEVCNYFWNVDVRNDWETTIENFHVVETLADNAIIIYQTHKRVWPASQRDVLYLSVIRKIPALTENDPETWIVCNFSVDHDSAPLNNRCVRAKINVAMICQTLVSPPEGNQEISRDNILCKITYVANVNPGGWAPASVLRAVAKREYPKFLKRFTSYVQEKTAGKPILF
Description: To explore the possibility that doxorubicin, an anti-tumor agent targeting topoisomerase II (Pommier et al. 2010), operates through GPBP-1, human recombinant GPBP-1 (Raya et al. 1999) was subjected to in vitro autophosphorylation in the presence or absence of doxorubicin and T12 (FIG. 1A).

[1] = target: T2, recombinant human GPBP-1 produced in insect cells (Homo sapiens, UniProt Q9Y5P4); experiment: Affinity constants for GPBP-1 by the Benesi-Hildebrand method; type: binding
T2 construct: FLAG (N); made in house; host or cells: SF9 insect cells (baculovirus, pFastBac1)
T2 sequence (Q9Y5P4 1-624): T1 sequence (Q9Y5P4 1-624)
Protocol: FIG. 1. […] A, to assess the inhibitory activity of T12 and doxorubicin on GPBP-1 kinase activity and their synergism, approximately 200 ng of yeast FLAG-GPBP-1 from two different preparations with low and high specific activities were incubated with [γ-^32P]ATP in the absence (−) or presence (+) of the indicated compounds and concentrations. Mixtures were subjected to Western blot and autoradiographed (^32P). The levels of GPBP were further analyzed using anti-FLAG (WB). B, in the panel is shown affinity constants of the indicated compounds for recombinant human GPBP-1 produced in insect cells calculated by the Benesi-Hildebrand method. Recombinant yeast GPBP-1 was expressed in Pichia pastoris and affinity-purified as previously described (Raya et al. 1999, raya et al. 2000). To express and purify recombinant FLAG-GPBP-1 from SF9 insect cells, the cDNA of FLAG-GPBP-1 was cloned in the baculovirus expression vector pFastBac1. The plasmid was transformed into DH10Bac competent cells and the recombinant baculovirus was produced following manufacturer's recommendations (Bac-to-Bac™ Baculovirus Expression System, Invitrogen, Life Technologies). Baculovirus was used to infect SF9 cells and GPBP-1 in the supernatant of culture media was purified by affinity chromatography using anti-FLAG agarose (Sigma-Aldrich) following manufacturer's recommendations. GPBP-1 phosphorylation assays were performed as previously described (Raya et al. 1999).

[2] = system: ovarian cancer cells (OVCAR-3); experiment: Response of OVCAR-3 ovarian cancer cells to T12; type: cell-based; conditions: cells that did not increase GPBP expression in response to doxorubicin
A549 cells = experiment: Migration assay in modified Boyden chambers; type: cell-based, human; conditions: 16 h
Protocol: FIG. 8. T12 inhibits cancer cell migration. A modified Boyden chamber was used to measure migration as described in Methods and Experimental Design. Doxorubicin was used at 1 μM and T12 at 50 μM.
Migration assays were performed using modified Boyden chambers (Transwell inserts, 6.5 mm diameter; Corning). Inserts containing polycarbonate membranes with 8 μm pores were placed into the lower chambers containing 400 μl media (DMEM:F-12 supplemented with 10% FBS, 1% penicillin-streptomycin and 2 mM glutamine). Serum-starved A549 cells were removed from culture dishes with Hanks' balanced salt solution containing 0.5% trypsin and 0.2% EDTA (Sigma), washed and suspended in media without serum (DMEM:F-12, 1% penicillin-streptomycin and 2 mM glutamine) at 10^6 cells/mL. Two-hundred fifty thousand (250,000) cells in 250 μL media without serum were added to the top of each migration chamber and allowed to migrate to the underside of the porous membrane for 16 h. T12 and doxorubicin were present in the media of both top and bottom compartments throughout the assay. […] The detached cells were labeled with Calcein AM Fluorescent Dye (4 μg/ml) for 90 min at 37° C. and the fluorescence was measured at 494/517 nm (Abs/Em).

[3] = system: A549 cells (CSC/SP and CTAC/MP compartments); experiment: Doxorubicin content of A549 cells by flow cytometry; type: cell-based, human; conditions: doxorubicin 1 μM plus T12 50 μM
Protocol: FIG. 10. T12 enhances doxorubicin accumulation, preferentially in CSC/SP cells. A549 cultures were untreated (control) or treated with doxorubicin (1 μM) and/or T12 (50 μM). A, doxorubicin content was measured by flow cytometry using the PE channel. Represented are fluorescence intensity values. The increased amount of doxorubicin is evidenced by the rightwards displacement of the fluorescence peak. B, CSC/SP and CTAC/MP compartments were identified as in FIG. 9 and the doxorubicin content of cells was determined as in A.
A549 cells were suspended at 10^6 cells/mL in culture medium containing 10 mM Hepes (previously warmed at 37° C.). Hoechst 33342 was added at 5 μg/mL and cells incubated in a 37° C. bath with shaking for 90 min in the dark. Before incubation (and after staining) an aliquot of 1 mL was taken and verapamil (50 μM) and fumitremorgin C (10 μM) added. Cells were centrifuged at 300×g for 5 min at 4° C. and suspended in cold medium with 10 mM Hepes. Cells were kept at 4° C. until analysis. Analysis of Hoechst 33342 efflux was assessed using a Flow Cytometer with incident 350 nm ultraviolet light. The resulting fluorescence was measured at two wavelengths using 424/44 BP and 675 LP filters that allow detection of Hoechst blue and red, respectively. […] Doxorubicin content in either population was estimated with incident 488 nm blue light and 585/40 filter. […]

[4] = Synergism of T12 with paclitaxel (no details given); conditions: T12 plus paclitaxel

| Structure (SMILES) | inhibition of GPBP-1 autophosphorylation (human recombinant GPBP-1; compound alone) | affinity / manner of binding to GPBP-1 [1] | binding to GPBP-1, fold stronger than T12 (affinity constants) ([1]; relative to T12) | inhibitory activity on GPBP-1 autophosphorylation in combination with doxorubicin (human recombinant GPBP-1; T12 plus doxorubicin) | responsiveness of OVCAR-3 cells to the compound [2] | cell migration of A549 cells, T12 with additional doxorubicin (A549 cells; T12 50 μM plus doxorubicin 1 μM) | cell migration of A549 cells (A549 cells; T12 50 μM) | doxorubicin content of cells versus doxorubicin only [3] | synergism of T12 with paclitaxel [4] |
| --- | --- | --- | --- | --- | --- | --- | --- | --- | --- |
| COc1cccc2c1C(=O)c1c(O)c3c(c(O)c1C2=O)C[C@@](O)(C(=O)CO)C[C@@H]3O[C@H]1C[C@H](N)[C@H](O)[C@H](C)O1 [doxorubicin, doxorubicin hydrochloride, reference compound] | efficiently inhibited | irreversible | ~10^5 fold |  |  |  |  |  |  |
| COc1ccc(-c2ccc(-c3cccc(C)c3)c(C)c2)c(CCC(=O)O)c1 [T12, 3-[4″-methoxy-3,2′-dimethyl-(1,1′;4′,1″)terphenyl-2″-yl] propionic acid] |  | light-moderated affinity |  | synergistic | not responsive | virtually arrested | sharply inhibited | higher doxorubicin content | synergistic |
